Assay: SAR16 (16H7) standalone and in combination with dulaglutide in DIO NASH cynomolgus monkeys
Assay type: in vivo, Cynomolgus monkey (Macaca fascicularis)
Description: Both were tested as single administration and in combination of both in the most relevant animal model that reflects the intended human population. Thus, the pharmacokinetic and pharmacodynamics of varying doses of the compounds were explored in the high-fat diet-induced obese and insulin resistance cynomolgus monkey model with diagnosed non-alcoholic steatohepatitis (NASH), mimicking the adult human NASH insulin resistance phenotype.
Cynomolgus monkey (Macaca fascicularis) was selected as the test species of choice for more meaningful results that were translatable to humans. More than 50 male monkeys were trained to identify 40 HFD induced obese NASH monkeys for the study.
There was a run-in period during which monkeys were injected subcutaneously with vehicle every third day. Food intake (calculated as TEI) and water intake were measured daily along with twice-weekly body weight evaluation and baseline value determination for metabolic biomarkers, safety biomarkers, IV glucose tolerance test (IVGTT), liver biopsy for gene expression analysis, and profile for glucose, insulin, and plasma lipids.
For the dosing period 40 trained monkeys (n=10 per group) were selected and stratified for body weight, fasting plasma glucose (FPG), and fasting plasma insulin (FPI) and insulin response from baseline during the IVGTT. All treatments were administered subcutaneously for […]. The dosing period was designed as a four-arm, dose-ramping study, and monkeys were treated with either vehicle, SAR10, SAR16, or a combination of both SAR10 and SAR16.
The SAR10-treated monkeys were dosed every 3rd day at 60 μg/kg initiated by dose ramping (3 dose steps, week 1: 20 μg/kg, week 2: 40 μg/kg, week 3 to runout: 60 μg/kg). The SAR16-treated monkeys were dosed at 1 mg/kg on day +1, 3 mg/kg on day +16, and then repeat maintenance dose of 3 mg/kg on day +46. The Combo-treated monkey were dosed with both SAR10 and SAR16 as the same pattern of the SAR10 and SAR16 treated monkeys.
Other parameters were also measured during the study, including food intake, body fat, plasma ketone bodies, as well as blood glucose control (glucose profile, fed, fasting plasma glucose and during ivGTT). One group received the vehicle. The compounds were administered subcutaneously (SC) (12 weeks “evaluation phase” plus run-out) to obese and NASH male cynomolgus macaques (Macaca fascicularis).
The SAR10-treated monkeys were dosed every 3rd day at 60 μg/kg initiated by dose ramping (3 dose steps, week 1: 20 μg/kg, week 2: 40 μg/kg, week 3 to runout: 60 μg/kg). The SAR16-treated monkeys were dosed at 1 mg/kg on day +1, 3 mg/kg on day +16, and then repeat maintenance dose of 3 mg/kg on day +46. The Combo-treated monkey were dosed with both SAR10 and SAR16 at the same pattern of the SAR10 and SAR16 treated monkeys.

[1] = compared to the vehicle treated group
[2] = day +76 compared to baseline (day −27)

## 16H7: anti FGFR1c/KLB monoclonal antibody of WO 2011/071783, IgG2 backbone; HC SEQ ID NO: 1, LC SEQ ID NO: 2 [Ab 16H7]
DIO NASH cynomolgus monkeys
  body weight (in words): Significant reductions in body weight
  food intake: Reduction of food intake
[1]
  fasting glucose and fed glucose levels (12:30 and 18:30): No significant change
  ivGTT glucose AUC: significantly decreased
[2]
  blood glucose levels, plasma profile: appreciable decreases
  insulin, plasma profile: decreased
Day +76 versus day −27
  HDL levels, plasma profile: slightly increased
  T-ketones levels, plasma profile: increased T-ketones levels
  TC and LDL levels, plasma profile: quite stable
  TG values, plasma profile: lower TG values
Measured on days +81/+82/+83/+84, DIO NASH cynomolgus monkeys
  liver fat fraction change (MRI): −30.0%
More monkeys improved compared to vehicle treated group
  NASH steatosis score: improved steatosis score
